Literature values in US20210145763A1, “LOW THC HEMP EXTRACT AND METHOD OF TREATMENT OR PREVENTION OF AN EYE DISEASE” (EYE CO PTY LTD, priority 2018, published 2021).

How the values were obtained:
[1] = biological target: T1, mineralocorticoid receptor (Homo sapiens, UniProt P08235); settings: relative potency, hydrocortisone = 1
T1 sequence (P08235 1-984): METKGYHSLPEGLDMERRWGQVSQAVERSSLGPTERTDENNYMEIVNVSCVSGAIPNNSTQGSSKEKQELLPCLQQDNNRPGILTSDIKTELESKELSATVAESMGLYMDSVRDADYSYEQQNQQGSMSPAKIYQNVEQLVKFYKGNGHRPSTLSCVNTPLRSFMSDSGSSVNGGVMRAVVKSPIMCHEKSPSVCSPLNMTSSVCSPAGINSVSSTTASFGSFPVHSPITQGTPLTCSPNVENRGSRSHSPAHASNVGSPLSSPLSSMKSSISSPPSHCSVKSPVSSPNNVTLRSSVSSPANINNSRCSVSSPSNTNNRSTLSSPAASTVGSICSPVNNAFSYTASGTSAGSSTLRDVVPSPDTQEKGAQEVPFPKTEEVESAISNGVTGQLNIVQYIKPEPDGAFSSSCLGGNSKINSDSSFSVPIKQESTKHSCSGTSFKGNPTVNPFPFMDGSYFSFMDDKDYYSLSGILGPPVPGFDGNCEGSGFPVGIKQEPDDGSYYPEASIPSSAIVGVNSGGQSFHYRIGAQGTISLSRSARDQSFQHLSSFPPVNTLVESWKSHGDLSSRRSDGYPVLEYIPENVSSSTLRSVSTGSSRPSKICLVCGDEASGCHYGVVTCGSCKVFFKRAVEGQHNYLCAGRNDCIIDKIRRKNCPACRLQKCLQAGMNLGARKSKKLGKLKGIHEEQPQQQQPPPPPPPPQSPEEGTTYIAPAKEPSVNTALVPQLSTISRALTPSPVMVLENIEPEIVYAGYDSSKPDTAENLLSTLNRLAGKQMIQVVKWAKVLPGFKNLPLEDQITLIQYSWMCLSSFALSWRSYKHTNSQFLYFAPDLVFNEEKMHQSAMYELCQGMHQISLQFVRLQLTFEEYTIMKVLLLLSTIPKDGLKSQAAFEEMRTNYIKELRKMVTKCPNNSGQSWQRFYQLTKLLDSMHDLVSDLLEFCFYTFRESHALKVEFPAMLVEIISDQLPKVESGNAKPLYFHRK

[2] = in vivo
glucocorticoid receptor = biological target: T2, glucocorticoid receptor (Homo sapiens, UniProt P04150); settings: relative potency, hydrocortisone = 1
T2 sequence (P04150 1-777): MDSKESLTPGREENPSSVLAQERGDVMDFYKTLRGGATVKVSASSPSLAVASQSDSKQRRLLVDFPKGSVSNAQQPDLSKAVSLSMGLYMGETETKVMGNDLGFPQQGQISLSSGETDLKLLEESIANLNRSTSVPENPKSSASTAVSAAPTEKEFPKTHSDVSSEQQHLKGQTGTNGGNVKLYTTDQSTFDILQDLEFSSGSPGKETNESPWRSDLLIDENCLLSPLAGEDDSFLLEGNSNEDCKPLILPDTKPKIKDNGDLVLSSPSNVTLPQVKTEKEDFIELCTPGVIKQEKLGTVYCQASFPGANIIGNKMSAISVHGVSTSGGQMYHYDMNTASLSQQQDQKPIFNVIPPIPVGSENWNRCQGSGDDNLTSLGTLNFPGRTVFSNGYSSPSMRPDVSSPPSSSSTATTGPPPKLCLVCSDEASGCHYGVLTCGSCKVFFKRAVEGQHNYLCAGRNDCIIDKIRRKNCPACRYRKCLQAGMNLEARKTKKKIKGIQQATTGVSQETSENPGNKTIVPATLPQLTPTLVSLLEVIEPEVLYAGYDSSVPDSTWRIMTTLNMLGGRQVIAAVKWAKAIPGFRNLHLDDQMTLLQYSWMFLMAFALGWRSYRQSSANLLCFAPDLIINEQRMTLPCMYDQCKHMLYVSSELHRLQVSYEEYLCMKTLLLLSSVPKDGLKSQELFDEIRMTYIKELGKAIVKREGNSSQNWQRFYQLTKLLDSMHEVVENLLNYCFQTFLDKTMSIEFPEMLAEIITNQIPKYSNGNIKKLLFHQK

In the case of `CC(=O)OCC(=O)[C@@]1(O)CC[C@H]2[C@@H]3CCC4=CC(=O)CC[C@]4(C)[C@@]3(F)[C@@H](O)C[C@@]21C` [Fludrocortisone acetate], the MR potency [1] is listed as 200.

In the case of `C[C@]12C=CC(=O)C=C1CC[C@@H]1[C@@H]2C(=O)C[C@@]2(C)[C@H]1CC[C@]2(O)C(=O)CO` [Prednisone], the MR potency [1] is given as 0.8 and the “Duration of action (t1/2 in hours)” value [2] is given as 16 to 36 h.

For `C[C@]12C=CC(=O)C=C1CC[C@@H]1[C@@H]2[C@@H](O)C[C@@]2(C)[C@H]1CC[C@]2(O)C(=O)CO` [Prednisolone], the MR potency [1] is given as 0.8, the “Duration of action (t1/2 in hours)” value [2] is given as 16 to 36 h and the GR potency (glucocorticoid receptor) is given as 4.

In the case of `C[C@H]1C[C@@H]2[C@H]([C@@H](O)C[C@@]3(C)[C@H]2CC[C@]3(O)C(=O)CO)[C@@]2(C)C=CC(=O)C=C12` [Methylprednisolone], the “Duration of action (t1/2 in hours)” value [2] is listed as 18 to 40 h.

For `C[C@]12CCC(=O)C=C1CC[C@@H]1[C@@H]2C(=O)C[C@@]2(C)[C@H]1CC[C@]2(O)C(=O)CO` [Cortisone], the MR potency [1] is listed as 0.8 and the GR potency (glucocorticoid receptor) is listed as 0.8.

For `C[C@]12CCC(=O)C=C1CC[C@@H]1[C@@H]2[C@@H](O)C[C@@]2(C)[C@H]1CC[C@]2(O)C(=O)CO` [Hydrocortisone (cortisol), Hydrocortisone], the MR potency [1] is listed as 1 and the GR potency (glucocorticoid receptor) is listed as 1.

For `CC(=O)OCC(=O)[C@H]1CC[C@H]2[C@@H]3CCC4=CC(=O)CC[C@]4(C)[C@H]3CC[C@]12C` [Deoxycorticosterone acetate (DOCA), Deoxycorticosterone acetate], the MR potency [1] is given as 20 and the GR potency (glucocorticoid receptor) is given as 0.

For `C[C@]12CCC(=O)C=C1CC[C@@H]1[C@@H]2[C@@H](O)C[C@]2(C=O)[C@@H](C(=O)CO)CC[C@@H]12` [Aldosterone], the MR potency [1] is given as 200-1000 and the GR potency (glucocorticoid receptor) is given as 0.3.

For `C[C@]12C=CC(=O)C=C1CC[C@H]1[C@@H]3C[C@@H](O)[C@](O)(C(=O)CO)[C@@]3(C)C[C@H](O)[C@@]12F` [Triamcinolone], the MR potency [1] is listed as 0, the “Duration of action (t1/2 in hours)” value [2] is listed as 12 to 36 h and the GR potency (glucocorticoid receptor) is listed as 5.
